Assay results from PubChem BioAssay (NCI).
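Compound exposure: 48 hours, 5 concentrations, 96-well plates. Here, GI50 denotes the concentration required for 50% inhibition of growth. TGI: total growth inhibition.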

Experiments:
Experiment in all cases: growth of human tumour cells (NCI), 48 h
[1] = test system: M14 melanoma
[2] = test system: NCI-H460 lung
[3] = test system: MDA-MB-231 breast
[4] = test system: SK-MEL-2 melanoma
[5] = test system: HCT-116 colon
[6] = test system: SF-539 CNS
[7] = test system: MDA-MB-468 breast
[8] = test system: RXF 393 renal
[9] = test system: KM12 colon
[10] = test system: MALME-3M melanoma
[11] = test system: MCF7 breast
[12] = test system: UO-31 renal
[13] = test system: LOX IMVI melanoma
[14] = test system: HS 578T breast
[15] = test system: OVCAR-8 ovarian
[16] = test system: BT-549 breast
[17] = test system: HOP-62 NSCLC
[18] = test system: CCRF-CEM leukemia
[19] = test system: SNB-75 CNS
[20] = test system: NCI-H522 lung
[21] = test system: SK-MEL-28 melanoma
[22] = test system: OVCAR-4 ovarian
[23] = test system: SK-MEL-5 melanoma
[24] = test system: K-562 leukemia
[25] = test system: COLO 205 colon
[26] = test system: ACHN renal
[27] = test system: IGROV1 ovarian
[28] = test system: NCI-H226 lung
[29] = test system: 786-0 renal
[30] = test system: SW-620 colon
[31] = test system: SK-OV-3 ovarian
[32] = test system: HCC-2998 colon
[33] = test system: MOLT-4 leukemia
[34] = test system: SF-295 CNS
[35] = test system: HOP-92 NSCLC
[36] = test system: SR leukemia
[37] = test system: NCI-H23 lung
[38] = test system: TK-10 renal
[39] = test system: EKVX NSCLC
[40] = test system: UACC-257 melanoma
[41] = test system: MDA-MB-435
[42] = test system: A549 NSCLC
[43] = test system: HL-60(TB) leukemia
[44] = test system: DU-145 prostate
[45] = test system: CAKI-1 renal
[46] = test system: HT29 colon
[47] = test system: OVCAR-3 ovarian
[48] = test system: T-47D breast
[49] = test system: U251 CNS
[50] = test system: HCT-15 colon
[51] = test system: PC-3 prostate
[52] = test system: RPMI-8226 leukemia
[53] = test system: UACC-62 melanoma
[54] = test system: SNB-19 CNS
[55] = test system: SN12C renal
[56] = test system: OVCAR-5 ovarian
[57] = test system: A498 renal
[58] = test system: SF-268 CNS

SMILES: CN(C)c1nc(NCCNS(=O)(=O)c2ccc(C(=O)/C=C/c3ccccc3)cc2)nc(N2CCOCC2)n1
- GI50 [1]: 14.6 µM
- TGI [1]: 31.6 µM
- GI50 [2]: 18.2 µM
- TGI [2]: 38.3 µM
- GI50 [3]: 13.9 µM
- TGI [3]: 27.6 µM
- GI50 [4]: 15.3 µM
- TGI [4]: 29.5 µM
- GI50 [5]: 1.82 µM
- TGI [5]: 3.59 µM
- GI50 [6]: 11.1 µM
- TGI [6]: 24.3 µM
- GI50 [7]: 4.17 µM
- TGI [7]: 17.7 µM
- GI50 [8]: 7.87 µM
- TGI [8]: 22.8 µM
- GI50 [9]: 2 µM
- TGI [9]: 4.23 µM
- GI50 [10]: 15.2 µM
- TGI [10]: 29.3 µM
- GI50 [11]: 3.49 µM
- TGI [11]: 13.8 µM
- GI50 [12]: 11.2 µM
- TGI [12]: 25 µM
- GI50 [13]: 1.97 µM
- TGI [13]: 4.13 µM
- GI50 [14]: 17.1 µM
- TGI [14]: 64.4 µM
- GI50 [15]: 16.4 µM
- TGI [15]: 31.8 µM
- GI50 [16]: 11.2 µM
- TGI [16]: 23.7 µM
- GI50 [17]: 16.4 µM
- TGI [17]: 32.1 µM
- GI50 [18]: 4.41 µM
- TGI [18]: 75.9 µM
- GI50 [19]: 5.49 µM
- TGI [19]: 19.8 µM
- GI50 [20]: 13.6 µM
- TGI [20]: 27.1 µM
- GI50 [21]: 17.2 µM
- TGI [21]: 33.1 µM
- GI50 [22]: 14.3 µM
- TGI [22]: 27.8 µM
- GI50 [23]: 15.9 µM
- TGI [23]: 29.4 µM
- GI50 [24]: 2.19 µM
- TGI [24]: > 100 µM
- GI50 [25]: 20.2 µM
- TGI [25]: 40.3 µM
- GI50 [26]: 18.2 µM
- TGI [26]: 36.3 µM
- GI50 [27]: 15.3 µM
- TGI [27]: 31.9 µM
- GI50 [28]: 13.5 µM
- TGI [28]: 31.7 µM
- GI50 [29]: 14.8 µM
- TGI [29]: 29.1 µM
- GI50 [30]: 3.41 µM
- TGI [30]: 12.7 µM
- GI50 [31]: 15.6 µM
- TGI [31]: 29.8 µM
- GI50 [32]: 16.7 µM
- TGI [32]: 31.1 µM
- GI50 [33]: 4.27 µM
- TGI [33]: > 100 µM
- GI50 [34]: 15.6 µM
- TGI [34]: 30.4 µM
- GI50 [35]: 12.2 µM
- TGI [35]: 26.6 µM
- GI50 [36]: 3.2 µM
- TGI [36]: > 100 µM
- GI50 [37]: 16 µM
- TGI [37]: 30.4 µM
- GI50 [38]: 16.4 µM
- TGI [38]: 30.2 µM
- GI50 [39]: 14.7 µM
- TGI [39]: 30.6 µM
- GI50 [40]: 17.9 µM
- TGI [40]: 32.3 µM
- GI50 [41]: 14.7 µM
- TGI [41]: 28.3 µM
- GI50 [42]: 13.6 µM
- TGI [42]: 28.3 µM
- GI50 [43]: 6.18 µM
- TGI [43]: 42.1 µM
- GI50 [44]: 15.1 µM
- TGI [44]: 28.4 µM
- GI50 [45]: 12.2 µM
- TGI [45]: 24.6 µM
- GI50 [46]: 3.8 µM
- TGI [46]: 13.1 µM
- GI50 [47]: 15.3 µM
- TGI [47]: 28.6 µM
- GI50 [48]: 16 µM
- TGI [48]: 37.4 µM
- GI50 [49]: 11.7 µM
- TGI [49]: 25.9 µM
- GI50 [50]: 5.21 µM
- TGI [50]: 20.5 µM
- GI50 [51]: 8.63 µM
- TGI [51]: 23.6 µM
- GI50 [52]: 3.25 µM
- TGI [52]: 11.4 µM
- GI50 [53]: 12 µM
- TGI [53]: 25 µM
- GI50 [54]: 14.8 µM
- TGI [54]: 29.1 µM
- GI50 [55]: 14.6 µM
- TGI [55]: 28.6 µM
- GI50 [56]: 12.1 µM
- TGI [56]: 26 µM
- GI50 [57]: 14.6 µM
- TGI [57]: 27.8 µM
- GI50 [58]: 13.7 µM
- TGI [58]: 31 µM
